Earlier results, collected in PubChem BioAssay AID1259410 (Chemical Carcinogenesis Research Information System (CCRIS), 2018).

Tested on: rodent tumor promotion studies, tumor incidence
Assay: CCRIS tumor promotion studies
[1] = Carcinogen: 7,12-DIMETHYLBENZ(A)ANTHRACENE, Doses [Carcinogen]: TOP, Route [Carcinogen]: DERMAL, Route [Promoter]: DERMAL, Species: MOUSE, Strain/Sex: FEMALE

## Cc1ccc2cc3c(ccc4ccccc43)c3c2c1CC3
Carcinogen: N-BIS(2-HYDROXYPROPYL)NITROSAMINE, 53609-64-6, N-ETHYL-N-HYDROXYETHYLNITROSAMINE, 13147-25-6, 3,2'-DIMETHYL-4-AMINOB, Carcinogen: N-BIS(2-HYDROXYPROPYL)NITROSAMINE, 53609-64-6, N-ETHYL-N-HYDROXYETHYLNITROSAMINE, 13147-25-6, 3,2'-DIMETHYL-4-AMINOB, Doses [Carcinogen]: 1000 MG/KG IP IN SALINE ON DAY 1 AND 4, 1500 MG/KG IG IN DISTILLED WATER ON DAY 8 AND 11, 75 MG/KG SC IN CORN OIL ON D, Doses [Carcinogen]: 1000 MG/KG IP IN SALINE ON DAY 1 AND 4, 1500 MG/KG IG IN DISTILLED WATER ON DAY 8 AND 11, 75 MG/KG SC IN CORN OIL ON D, Doses [Promoter]: 0, 0.02% IN DIET BEGINNING 1 WK POST LAST CARCINOGEN DOSE AND CONTINUING FOR 12 WK (STUDY DURATION: 16 WK), Route [Carcinogen]: INTRAPERITONEAL, GAVAGE, SUBCUTANEOUS, Route [Carcinogen]: INTRAPERITONEAL, GAVAGE, SUBCUTANEOUS, Route [Promoter]: ORAL, Species: RAT, Strain/Sex: F344/MALE
  outcome: lung: adenoma or adenocarcinoma

## COc1cc(NS(=O)(=O)c2ccc(N)cc2)nc(OC)n1
Carcinogen: Kojic acid, 501-30-4, Doses [Carcinogen]: 0.02, 0.2, 2% in diet for 8 wk before administration of promoter, Doses [Carcinogen]: 0.02, 0.2, 2% in diet for 8 wk before administration of promoter, Doses [Promoter]: 0.1% in drinking water from 8 wk to 31 wk of experiment, study duration 44 wk, Route [Carcinogen]: Oral, Route [Promoter]: Oral, Species: Rat, Strain/Sex: F344//Male (20/experimental group (10 killed at 31 wk & 10 killed at 44 wk); 15/controls)
  outcome: thyroid: negative for tumors
Carcinogen: N-bis(2-hydroxypropyl)nitrosamine, 53609-64-6, Doses [Carcinogen]: 700 mg/kg, 4 injections administered over 8 wk before promoter, Doses [Promoter]: 0.1% in drinking water from 8 wk to 31 wk of experiment, study duration 44 wk, Route [Carcinogen]: Subcutaneous, Route [Promoter]: Oral, Species: Rat, Strain/Sex: F344//Male (20/experimental group (10 killed at 31 wk & 10 killed at 44 wk); 15/controls)
  outcome: thyroid: adenoma and carcinoma at both 31 and 44 wk

## CC1=C(/C=C/C(C)=C/C=C/C(C)=C/C=C/C=C(C)/C=C/C=C(C)/C=C/C2=C(C)CCCC2(C)C)C(C)(C)CCC1
Carcinogen: 4-(N-METHYL-N-NITROSAMINO)-1-(3-PYRIDYL)-1-BUTANONE (NNK) [64091-91-4], Doses [Carcinogen]: 3.5 MG ON D 7, Doses [Promoter]: 0, 120, 600, 3000 PPM FROM START TO END AT 26 WKS (STUDY DURATION: 26 WKS), Doses [Promoter]: 0, 120, 600, 3000 PPM FROM START TO END AT 26 WKS (STUDY DURATION: 26 WKS), Route [Carcinogen]: IP INJECTION, Route [Promoter]: DIET, Species: MOUSE, Strain/Sex: A/J/MALE
  outcome: lung - negative
Carcinogen: 4-(N-METHYL-N-NITROSAMINO)-1-(3-PYRIDYL)-1-BUTANONE (NNK) [64091-91-4], Doses [Carcinogen]: 3.5 MG ON D 15 (STUDY DURATION: 28 WKS), Doses [Promoter]: 600 PPM WKS 1 TO 3, WKS 6 TO 28 OR WKS 1 TO 28 (STUDY DURATION: 28 WKS), Route [Carcinogen]: IP INJECTION, Route [Promoter]: DIET, Species: MOUSE, Strain/Sex: A/J/MALE
  outcome: lung - negative
Carcinogen: 4-(N-METHYL-N-NITROSAMINO)-1-(3-PYRIDYL)-1-BUTANONE (NNK) [64091-91-4], Doses [Carcinogen]: 5 MG ON D 28, Doses [Promoter]: 600 PPM FROM START TO WK 5, WK 3 TO 8, WKS 8 TO 24 OR FOR 24 WKS (STUDY DURATION: 24 WKS), Route [Carcinogen]: IP INJECTION, Route [Promoter]: DIET, Species: MOUSE, Strain/Sex: A/J/MALE
  outcome: lung - negative

## C[C@H](CCC(=O)O)[C@H]1CC[C@H]2[C@@H]3[C@H](O)C[C@@H]4C[C@H](O)CC[C@]4(C)[C@H]3CC[C@]12C
Carcinogen: 3-METHYLCHOLANTHRENE, 56-49-5, Doses [Carcinogen]: 3 MG IN BEESWAX PELLET, Doses [Promoter]: 0, 3 MG IN BEESWAX PELLET (STUDY DURATION: 5 MO), Route [Carcinogen]: IMPLANT, Route [Promoter]: IMPLANT, Species: HAMSTER
  outcome: gallbladder: tumor
Doses [Carcinogen]: IR, Route [Carcinogen]: RECTAL, Route [Promoter]: RECTAL, Species: RAT, Strain/Sex: FEMALE
  outcome: colon

## O=C(O)CCC(=O)O
Carcinogen: N-BUTYL-N-(4-HYDROXYBUTYL)NITROSAMINE, 3817-11-6, Doses [Carcinogen]: 0.05% IN DRINKING WATER FOR 4 WK, Doses [Promoter]: 0, 5% IN BASAL DIET BEGINNING POST CARCINOGEN TREATMENT AND CONTINUING FOR 32 WK (STUDY DURATION: 36 WK), Route [Carcinogen]: ORAL, Route [Promoter]: ORAL, Species: RAT, Strain/Sex: F344/MALE
  outcome: urinary bladder: papilloma, carcinoma

## Cc1ccc(C)c(O)c1
[1]
  outcome: integumentary system (skin)

## Cc1cccc(O)c1
[1]
  outcome: integumentary system (skin)

## CNC(=O)Oc1ccccc1OC(C)C
Carcinogen: 7,12-DIMETHYLBENZ[A]ANTHRACENE, 57-97-6, Doses [Carcinogen]: 52 UG IN 100 µL ACETONE ONCE, Doses [Promoter]: 0, 100 MG/KG BW IN 100 µL ACETONE 3/WK FOR 51 WK BEGINNING 1/WK POST CARCINOGEN DOSE (STUDY DURATION: 52 WK), Route [Carcinogen]: DERMAL, Route [Promoter]: DERMAL, Species: MOUSE, Strain/Sex: SWISS/FEMALE
  outcome: skin: tumor
Carcinogen: 7,12-DIMETHYLBENZ[A]ANTHRACENE, 57-97-6, Doses [Carcinogen]: 52 UG IN 100 µL ACETONE ONCE, Doses [Promoter]: 0, 100 MG/KG BW IN 100 µL ACETONE 3/WK FOR 51 WK BEGINNING 1 WK POST CARCINOGEN DOSE (STUDY DURATION: 52 WK), Route [Carcinogen]: DERMAL, Route [Promoter]: DERMAL, Species: MOUSE, Strain/Sex: SWISS/MALE
  outcome: skin: tumor

## ClC1=C(Cl)C2(Cl)C3C(Cl)C=CC3C1(Cl)C2(Cl)Cl (stereo unspecified)
Carcinogen: DIETHYLNITROSAMINE, 55-18-5, Doses [Carcinogen]: 20 PPM IN DRINKING WATER FOR 14 WK, Doses [Promoter]: 0, 5, 10 PPM TECHNICAL GRADE IN DIET BEGINNING 4 WK POST LAST CARCINOGEN DOSE AND CONTINUING FOR 25 WK (STUDY DURATION:, Doses [Promoter]: 0, 5, 10 PPM TECHNICAL GRADE IN DIET BEGINNING 4 WK POST LAST CARCINOGEN DOSE AND CONTINUING FOR 25 WK (STUDY DURATION:, Route [Carcinogen]: ORAL, Route [Promoter]: ORAL, Species: MOUSE, Strain/Sex: B6C3F1/MALE
  outcome: liver: adenoma or carcinoma

## C[C@]12CC[C@H]3[C@@H](CCC4=CC(=O)CC[C@@]43C)[C@@H]1CC[C@@H]2O
Carcinogen: DIETHYLNITROSAMINE, 55-18-5, Doses [Carcinogen]: 2.5 UG/G BW IN SALINE ONCE, Doses [Promoter]: 0, 0.5-1 MG IN PELLET IMPLANTED 1/MONTH FOR 30 WK BEGINNING 30 D POST CARCINOGEN TREATMENT. DOSING BEGAN SAME DAY OF BIL, Route [Carcinogen]: INTRAPERITIONEAL, Route [Promoter]: SUBCUTANEOUS, Species: MOUSE, Strain/Sex: B6C3F1/FEMALE
  outcome: liver: tumor

## CCCCCCCCCCCCCCCCCCCCCCCCCCCC
Carcinogen: 7,12-DIMETHYLBENZ(A)ANTHRACENE, Doses [Carcinogen]: TOP, Route [Carcinogen]: DERMAL, Route [Promoter]: DERMAL, Species: MOUSE, Strain/Sex: MALE
  outcome: integumentary system (skin)
